According to patent US8993586B2, “N1/N2-lactam acetyl-CoA carboxylase inhibitors” (Pfizer Inc., priority 2010, dated 2015):

How the values were obtained:
[1] = molecular target: recombinant human ACC2 (rhACC2) (Homo sapiens (Human), UniProt O00763); assay: recombinant hACC2 Transcreener ADP detection FP assay; type: biochemical; conditions: 50 uM ATP, 50 min at 25° C.
Protocol: (§1) For example direct inhibition of ACC activity, for the compound of Formula (I) was determined using preparations of recombinant human ACC1 (rhACC1) and recombinant human ACC2 (rhACC2).
[3] Preparation of rhACC2. Human ACC2 inhibition was measured using purified recombinant human ACC2 (hrACC2). Briefly, a full length Cytomax clone of ACC2 was purchased from Cambridge Bioscience Limited and was sequenced and subcloned into PCDNA5 FRT TO-TOPO (Invitrogen, Carlsbad, Calif.). The ACC2 was expressed in CHO cells by tetracycline induction and harvested in 5 liters of DMEM/F12 with glutamine, biotin, hygromycin and blasticidin with 1 μg/mL tetracycline (Invitrogen, Carlsbad, Calif.). The conditioned medium containing ACC2 was then applied to a Softlink Soft Release Avidin column (Promega, Madison, Wis.) and eluted with 5 mM biotin. […] The purified ACC2 was dialyzed in 50 mM Tris, 200 mM NaCl, 4 mM DTT, 2 mM EDTA, and 5% glycerol. […] For measurement of ACC2 activity and assessment of ACC2 inhibition, test compounds were dissolved in DMSO and added to the rhACC2 enzyme as a 5× stock with a final DMSO concentration of 1%.
[4] Measurement of human ACC2 inhibition. hACC2 was assayed in a Costar #3676 (Costar, Cambridge, Mass.) 384-well plate using the Transcreener ADP detection FP assay kit (Bellbrook Labs, Madison, Wis.) using the manufacturer's recommended conditions for a 50 uM ATP reaction. The final conditions for the assay were 50 mM HEPES, pH 7.2, 5 mM MgCl2, 5 mM tripotassium citrate, 2 mM DTT, 0.1 mg/mL BSA, 30 μM acetyl-CoA, 50 μM ATP, and 8 mM KHCO3 Typically, a 10 μl reaction was run for 50 min at 25° C., and 10 μl of Transcreener stop and detect buffer was added and the combination incubated at room temp for an additional 1 hour. The data was acquired on an Envision Fluorescence reader (PerkinElmer) using a 620 excitation Cy5 FP general dual mirror, 620 excitation Cy5 FP filter, 688 emission (S) and a 688 (P) emission filter.

[2] = molecular target: recombinant human ACC1 (rhACC1) (Homo sapiens (Human), UniProt Q13085); assay: recombinant hACC1 Transcreener ADP detection FP assay; type: biochemical; conditions: 50 μM ATP, 120 min at 25° C.
Protocol: as §1
[1] Preparation of rhACC1. Two liters of SF9 cells, infected with recombinant baculovirus containing full length human ACC1 cDNA, were suspended in ice-cold lysis buffer (25 mM Tris, pH 7.5; 150 mM NaCl; 10% glycerol; 5 mM imidazole (EMD Bioscience; Gibbstown, N.J.); 2 mM TCEP (BioVectra; Charlottetown, Canada); Benzonase nuclease (10000 U/100 g cell paste; Novagen; Madison, Wis.); EDTA-free protease inhibitor cocktail (1 tab/50 mL; Roche Diagnostics; Mannheim, Germany). Cells were lysed by 3 cycles of freeze-thaw and centrifuged at 40,000×g for 40 minutes (4° C.). Supernatant was directly loaded onto a HisTrap FF crude column (GE Healthcare; Piscataway, N.J.) and eluted with an imidazole gradient up to 0.5 M over 20 column volumes (CV). ACC1-containing fractions were pooled and diluted 1:5 with 25 mM Tris, pH 7.5, 2 mM TCEP, 10% glycerol and direct loaded onto a CaptoQ (GE Healthcare) column and eluted with an NaCl gradient up to 1 M over 20 CV's. Phosphate groups were removed from purified ACC1 by incubation with lambda phosphatase (100 U/10 μM target protein; New England Biolabs; Beverly, Mass.) for 14 hours at 4° C.; okadaic acid was added (1 μM final concentration; Roche Diagnostics) to inhibit the phosphatase. Purified ACC1 was exchanged into 25 mM Tris, pH 7.5, 2 mM TCEP, 10% glycerol, 0.5 M NaCl by 6 hour dialysis at 4° C. Aliquots were prepared and frozen at −80° C.
[2] Measurement of rhACC1 inhibition. hACC1 was assayed in a Costar #3676 (Costar, Cambridge, Mass.) 384-well plate using the Transcreener ADP detection FP assay kit (Bellbrook Labs, Madison, Wis.) using the manufacturer's recommended conditions for a 50 μM ATP reaction. The final conditions for the assay were 50 mM HEPES, pH 7.2, 10 mM MgCl2, 7.5 mM tripotassium citrate, 2 mM DTT, 0.1 mg/mL BSA, 30 μM acetyl-CoA, 50 μM ATP, and 10 mM KHCO3 Typically, a 10 μl reaction was run for 120 min at 25° C., and 10 μl of Transcreener stop and detect buffer was added and the combination incubated at room temp for an additional 1 hour. The data was acquired on a Envision Fluorescence reader (PerkinElmer) using a 620 excitation Cy5 FP general dual mirror, 620 excitation Cy5 FP filter, 688 emission (S) and a 688 (P) emission filter.

Sequence of recombinant human ACC2 (rhACC2) (O00763 whole entry V2141I): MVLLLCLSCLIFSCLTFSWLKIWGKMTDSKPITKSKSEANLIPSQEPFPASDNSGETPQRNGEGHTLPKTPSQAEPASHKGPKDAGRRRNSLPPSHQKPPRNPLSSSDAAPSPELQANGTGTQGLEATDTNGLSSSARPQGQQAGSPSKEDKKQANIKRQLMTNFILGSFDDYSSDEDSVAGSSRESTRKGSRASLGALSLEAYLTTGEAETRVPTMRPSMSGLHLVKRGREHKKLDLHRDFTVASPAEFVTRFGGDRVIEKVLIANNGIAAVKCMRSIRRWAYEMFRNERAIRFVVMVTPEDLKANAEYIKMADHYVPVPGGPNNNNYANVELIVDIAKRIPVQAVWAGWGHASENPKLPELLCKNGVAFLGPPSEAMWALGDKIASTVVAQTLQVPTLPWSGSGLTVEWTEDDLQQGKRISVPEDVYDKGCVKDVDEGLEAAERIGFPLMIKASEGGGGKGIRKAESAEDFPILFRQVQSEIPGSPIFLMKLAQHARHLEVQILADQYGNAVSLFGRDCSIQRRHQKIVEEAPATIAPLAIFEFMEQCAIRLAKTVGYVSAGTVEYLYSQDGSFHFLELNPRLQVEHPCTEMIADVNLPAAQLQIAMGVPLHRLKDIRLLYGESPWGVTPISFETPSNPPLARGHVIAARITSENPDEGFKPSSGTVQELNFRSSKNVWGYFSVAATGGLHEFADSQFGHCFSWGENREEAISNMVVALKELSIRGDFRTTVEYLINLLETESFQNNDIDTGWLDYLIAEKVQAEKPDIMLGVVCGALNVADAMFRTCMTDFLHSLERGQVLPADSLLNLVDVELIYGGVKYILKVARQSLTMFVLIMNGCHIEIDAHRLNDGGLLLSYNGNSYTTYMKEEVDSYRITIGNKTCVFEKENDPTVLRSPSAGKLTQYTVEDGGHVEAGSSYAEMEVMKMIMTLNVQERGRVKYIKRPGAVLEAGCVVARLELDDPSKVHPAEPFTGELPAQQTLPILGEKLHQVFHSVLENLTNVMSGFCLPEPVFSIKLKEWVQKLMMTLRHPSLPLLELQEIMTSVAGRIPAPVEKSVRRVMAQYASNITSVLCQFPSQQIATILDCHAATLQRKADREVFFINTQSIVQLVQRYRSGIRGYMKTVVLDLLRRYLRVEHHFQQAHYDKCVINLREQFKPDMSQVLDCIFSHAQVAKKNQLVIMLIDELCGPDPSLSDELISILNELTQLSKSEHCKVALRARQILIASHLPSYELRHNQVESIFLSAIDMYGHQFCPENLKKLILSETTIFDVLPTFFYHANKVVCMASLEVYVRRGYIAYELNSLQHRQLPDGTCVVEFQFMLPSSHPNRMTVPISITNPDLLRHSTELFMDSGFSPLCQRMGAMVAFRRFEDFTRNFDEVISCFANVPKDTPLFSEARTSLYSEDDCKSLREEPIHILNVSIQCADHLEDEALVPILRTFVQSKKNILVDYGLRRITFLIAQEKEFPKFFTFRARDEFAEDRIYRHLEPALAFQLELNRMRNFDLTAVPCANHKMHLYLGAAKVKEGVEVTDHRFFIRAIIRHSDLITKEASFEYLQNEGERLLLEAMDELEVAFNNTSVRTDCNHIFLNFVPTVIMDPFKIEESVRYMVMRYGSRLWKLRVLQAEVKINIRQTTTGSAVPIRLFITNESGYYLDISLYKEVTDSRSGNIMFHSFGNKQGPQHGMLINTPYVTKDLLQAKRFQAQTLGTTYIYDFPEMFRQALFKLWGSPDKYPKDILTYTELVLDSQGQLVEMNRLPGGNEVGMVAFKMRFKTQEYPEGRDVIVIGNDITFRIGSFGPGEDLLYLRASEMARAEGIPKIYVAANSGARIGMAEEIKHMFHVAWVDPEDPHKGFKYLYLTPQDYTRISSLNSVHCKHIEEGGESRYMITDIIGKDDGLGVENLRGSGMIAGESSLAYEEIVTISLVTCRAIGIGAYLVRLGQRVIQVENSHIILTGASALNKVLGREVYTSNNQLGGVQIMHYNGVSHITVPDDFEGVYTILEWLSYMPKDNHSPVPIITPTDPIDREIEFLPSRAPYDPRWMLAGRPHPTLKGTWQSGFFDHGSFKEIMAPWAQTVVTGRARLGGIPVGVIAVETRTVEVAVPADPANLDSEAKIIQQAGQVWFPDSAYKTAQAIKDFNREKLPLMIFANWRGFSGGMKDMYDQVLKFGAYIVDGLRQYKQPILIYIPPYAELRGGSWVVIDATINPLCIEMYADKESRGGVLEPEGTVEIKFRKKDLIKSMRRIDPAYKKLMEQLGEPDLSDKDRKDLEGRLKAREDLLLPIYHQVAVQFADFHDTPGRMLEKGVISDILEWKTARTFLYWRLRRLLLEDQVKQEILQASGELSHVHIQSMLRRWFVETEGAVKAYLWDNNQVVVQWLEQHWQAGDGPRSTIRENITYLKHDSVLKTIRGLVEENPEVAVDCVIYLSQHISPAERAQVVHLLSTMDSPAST

SMILES	IC50 [1]	IC50 [2]
COc1cccc2cc(C(=O)N3CCC4(CC3)Cc3cn(C(C)(C)C)nc3C(=O)N4)ccc12 [Example 50]	7.5 nM	30 nM
COc1cc(C(=O)N2CCC3(CC2)Cc2cn(C(C)(C)C)nc2C(=O)N3)nc2c(OC)cccc12 [Example 51]	4.4 nM	15 nM
CC(C)(C)n1cc2c(n1)C(=O)NC1(CCN(C(=O)c3ccc4cn[nH]c4c3)CC1)C2 [Example 52]	17 nM	88 nM
CC(C)(C)n1cc2c(n1)C(=O)NC1(CCN(C(=O)c3ccc4c(C#N)n[nH]c4c3)CC1)C2 [Example 53]	13 nM	47 nM
CC(C)(C)n1cc2c(n1)C(=O)NC1(CCN(C(=O)c3ccc4[nH]nc(C(N)=O)c4c3)CC1)C2 [Example 54]	5.1 nM	21 nM
COc1ccc(C)c2[nH]c(C(=O)N3CCC4(CC3)Cc3cn(C(C)(C)C)nc3C(=O)N4)cc12 [Example 56]	1.9 nM	7.4 nM
CC(C)(C)n1cc2c(n1)C(=O)NC1(CCN(C(=O)c3ccc4nc(N)ccc4c3)CC1)C2 [Example 58]	12 nM	149 nM
CC(C)(C)n1cc2c(n1)C(=O)NC1(CCN(C(=O)c3ccc4cnc(N)cc4c3)CC1)C2 [Example 59]	14 nM	123 nM
CC(C)(C)n1cc2c(n1)C(=O)NC1(CCN(C(=O)c3ccc4[nH]nc(C#N)c4c3)CC1)C2 [Example 60]	14 nM	43 nM
CC(C)(C)n1cc2c(n1)C(=O)NC1(CCN(C(=O)c3ccc4[nH]nc(N)c4c3)CC1)C2 [Example 61]	13 nM	94 nM
Cc1cc(C(=O)N2CCC3(CC2)Cc2cn(C(C)(C)C)nc2C(=O)N3)cc2c(Cl)n[nH]c12 [Example 62]	2.1 nM	8.4 nM
CC(C)(C)n1cc2c(n1)C(=O)NC1(CCN(C(=O)c3ccc4ncccc4c3)CC1)C2 [Example 63]	28 nM	160 nM
CC(C)(C)n1cc2c(n1)C(=O)NC1(CCN(C(=O)c3ccc4c(N)n[nH]c4c3)CC1)C2 [Example 65]	56 nM	256 nM
COc1cc(C(=O)N2CCC3(CC2)Cc2cn(C(C)(C)C)nc2C(=O)N3)cc2[nH]ncc12 [Example 66]	2.4 nM	17 nM
Cn1[nH]c2ccc(C(=O)N3CCC4(CC3)Cc3cn(C(C)(C)C)nc3C(=O)N4)cc2c1=O [Example 67]	311 nM	1340 nM
COc1cccc2cc(C(=O)N3CCC4(CC3)Cc3cn(C(C)(C)C)nc3C(=O)N4)cnc12 [Example 68]	68 nM	221 nM
CNc1ccc2cc(C(=O)N3CCC4(CC3)Cc3cn(C(C)(C)C)nc3C(=O)N4)ccc2n1 [Example 69]	28 nM	185 nM
COc1cccc2ccc(C(=O)N3CCC4(CC3)Cc3cn(C(C)(C)C)nc3C(=O)N4)cc12 [Example 70]	2.4 nM	5.8 nM
CC(C)(C)n1cc2c(n1)C(=O)NC1(CCN(C(=O)c3ccc4ccc(N)nc4c3)CC1)C2 [Example 72]	5.9 nM	28 nM
CNc1cc2cc(C(=O)N3CCC4(CC3)Cc3cn(C(C)(C)C)nc3C(=O)N4)ccc2cn1 [Example 73]	5.5 nM	48 nM

SMILES	IC50 [1]	IC50 [2]
COc1cccc2ncc(C(=O)N3CCC4(CC3)Cc3cn(C(C)(C)C)nc3C(=O)N4)cc12 [Example 74]	3.2 nM	18 nM
CNc1nc2cc(C(=O)N3CCC4(CC3)Cc3cn(C(C)(C)C)nc3C(=O)N4)ccc2[nH]1 [Example 75]	11 nM	79 nM
CC(C)(C)n1cc2c(n1)C(=O)NC1(CCN(C(=O)c3ccc4[nH]c(N)nc4c3)CC1)C2 [Example 77]	8.4 nM	80 nM
CC(C)(C)n1cc2c(n1)C(=O)NC1(CCN(C(=O)c3cc(C(F)(F)F)c4[nH]ncc4c3)CC1)C2 [Example 78]	34 nM	155 nM
COc1n[nH]c2cc(C(=O)N3CCC4(CC3)Cc3cn(C(C)(C)C)nc3C(=O)N4)ccc12 [Example 79]	18 nM	216 nM
COc1n[nH]c2ccc(C(=O)N3CCC4(CC3)Cc3cn(C(C)(C)C)nc3C(=O)N4)cc12 [Example 81]	5.3 nM	46 nM
CC(C)(C)n1cc2c(n1)C(=O)NC1(CCN(C(=O)c3ccc4c(C(F)(F)F)n[nH]c4c3)CC1)C2 [Example 83]	19 nM	163 nM
Cn1[nH]c2cc(C(=O)N3CCC4(CC3)Cc3cn(C(C)(C)C)nc3C(=O)N4)ccc2c1=O [Example 84]	33 nM	194 nM
COc1cc(C(=O)N2CCC3(CC2)Cc2cn(C(C)(C)C)nc2C(=O)N3)cc2c(C)n[nH]c12 [Example 87]	2.1 nM	17 nM
CNc1n[nH]c2cc(C(=O)N3CCC4(CC3)Cc3cn(C(C)(C)C)nc3C(=O)N4)ccc12 [Example 89]	44 nM	343 nM
COc1cc2ccc(C(=O)N3CCC4(CC3)Cc3cn(C(C)(C)C)nc3C(=O)N4)cc2cn1 [Example 90]	31 nM	209 nM
CNc1nccc2cc(C(=O)N3CCC4(CC3)Cc3cn(C(C)(C)C)nc3C(=O)N4)ccc12 [Example 91]	51 nM	240 nM
COc1nccc2cc(C(=O)N3CCC4(CC3)Cc3cn(C(C)(C)C)nc3C(=O)N4)ccc12 [Example 92]	55 nM	244 nM
CNc1n[nH]c2ccc(C(=O)N3CCC4(CC3)Cc3cn(C(C)(C)C)nc3C(=O)N4)cc12 [Example 93]	8.6 nM	65 nM
CC(C)(C)n1cc2c(n1)C(=O)NC1(CCN(C(=O)c3ccc4cc(N)ncc4c3)CC1)C2 [Example 94]	23 nM	130 nM
CNc1cc2ccc(C(=O)N3CCC4(CC3)Cc3cn(C(C)(C)C)nc3C(=O)N4)cc2cn1 [Example 95]	9.2 nM	105 nM
CC(C)(C)n1cc2c(n1)C(=O)NC1(CCN(C(=O)c3cnc4[nH]cc(Cl)c4c3)CC1)C2 [Example 96]	7.1 nM	62 nM
COc1cc(C(=O)N2CCC3(CC2)Cc2cn(C(C)(C)C)nc2C(=O)N3)cc2cn[nH]c12 [Example 99, 2′-tert-butyl-1-(7-methoxy-1H-indazole-5-carbonyl)-4′,6′-dihydrospiro[piperidine-4,5′-pyrazolo[3,4-c]pyridin]-7′(2′H)-one]	5.6 nM	23 nM
CC(C)(C)n1cc2c(n1)C(=O)NC1(CCN(C(=O)c3ccc4ccnc(N)c4c3)CC1)C2 [Example 100, 1-(1-aminoisoquinoline-7-carbonyl)-2′-tert-butyl-4′,6′-dihydrospiro[piperidine-4,5′-pyrazolo[3,4-c]pyridin]-7′(2′H)-one]	21 nM	62 nM
